Data taken from the NIST ThermoML archive (doi:10.1021/je8001442).

Assay: excess molar enthalpy (molar enthalpy of mixing); xn = mol fraction of the nth substance listed
Details: Fluid (supercritical or subcritical phases), Flow calorimetry

CC(C)OC(C)C [diisopropyl ether] + O=C=O
excess molar enthalpy [kcal/mol]
Details | 298.15 K | 303.15 K
5000 kPa, x2 = 0.1255 | -0.279 | -0.251
5000 kPa, x2 = 0.2326 | -0.527 | -0.526
5000 kPa, x2 = 0.3249 | -0.734 | -0.741
5000 kPa, x2 = 0.4054 | -0.913 | -0.922
5000 kPa, x2 = 0.4762 | -1.07 | -1.08
5000 kPa, x2 = 0.5389 | -1.2 | -1.22
5000 kPa, x2 = 0.5949 | -1.33 | -1.35
5000 kPa, x2 = 0.6452 | -1.45 | -1.46
5000 kPa, x2 = 0.6906 | -1.55 | -1.55
5000 kPa, x2 = 0.7317 | -1.62 | -1.64
5000 kPa, x2 = 0.7692 | -1.71 | –
5000 kPa, x2 = 0.8036 | -1.79 | –
5000 kPa, x2 = 0.8351 | -1.85 | –
5500 kPa, x2 = 0.1263 | -0.277 | -0.278
5500 kPa, x2 = 0.2338 | -0.496 | -0.505
5500 kPa, x2 = 0.3265 | -0.682 | -0.715
5500 kPa, x2 = 0.4071 | -0.861 | -0.881
5500 kPa, x2 = 0.478 | -0.991 | -1.03
5500 kPa, x2 = 0.5407 | -1.13 | -1.16
5500 kPa, x2 = 0.5966 | -1.25 | -1.28
5500 kPa, x2 = 0.6468 | -1.34 | -1.38
5500 kPa, x2 = 0.6921 | -1.45 | -1.48
5500 kPa, x2 = 0.7331 | -1.52 | -1.56
5500 kPa, x2 = 0.7705 | -1.61 | -1.64
5500 kPa, x2 = 0.8047 | -1.67 | -1.69
5500 kPa, x2 = 0.8361 | -1.74 | –
5500 kPa, x2 = 0.865 | -1.78 | –
5500 kPa, x2 = 0.8918 | -1.82 | –
5500 kPa, x2 = 0.9019 | -1.83 | –
6000 kPa, x2 = 0.127 | -0.232 | -0.255
6000 kPa, x2 = 0.235 | -0.442 | -0.479
6000 kPa, x2 = 0.3279 | -0.621 | -0.675
6000 kPa, x2 = 0.4087 | -0.761 | -0.839
6000 kPa, x2 = 0.4796 | -0.89 | -0.973
6000 kPa, x2 = 0.5423 | -1.01 | -1.09
6000 kPa, x2 = 0.5982 | -1.09 | -1.21
6000 kPa, x2 = 0.6483 | -1.19 | -1.32
6000 kPa, x2 = 0.6934 | -1.27 | -1.4
6000 kPa, x2 = 0.7344 | -1.33 | -1.48
6000 kPa, x2 = 0.7716 | -1.4 | -1.54
6000 kPa, x2 = 0.8057 | -1.48 | -1.6
6000 kPa, x2 = 0.837 | -1.52 | –
6000 kPa, x2 = 0.8658 | -1.59 | –
6000 kPa, x2 = 0.8924 | -1.63 | –
6000 kPa, x2 = 0.9171 | -1.65 | –
6000 kPa, x2 = 0.931 | -1.63 | –
6000 kPa, x2 = 0.94 | -1.67 | –
6000 kPa, x2 = 0.9614 | -1.64 | –
6000 kPa, x2 = 0.9813 | -1.48 | –
